For data set [1] the following is noted: in vivo; cited from earlier work.
In data set [2] the target is T1, P-gp (Homo sapiens, UniProt P08183). The settings on record: cell monolayers in vitro; cited from earlier work.
Data set [3] has as its target T1, P-gp. Conditions: cited from earlier work.
For data set [4], the target named is T2, Factor Xa (Homo sapiens, UniProt P00742).
T2 construct: host or cells: human subjects (ex vivo pharmacodynamics)
Conditions: 10 mg dose, cited from earlier work.

Another data set concerns prothrombin time. The data set is described as follows: Prothrombin time (STAR Neoplastin method). It is filed as in vivo, human. The text has this: As used herein, the term “prothrombin time” (PT) refers to a blood test that measures how long it takes blood to clot. In some embodiments, a prothrombin time test can be used to measure of a patient's haemostasis. In some embodiments, PT can be used to measure the effectiveness or exposure to a blood clotting drug. Persons having skill in the art sometimes interchangeably refer to a PT test as an INR. […] Additionally, PT measurements are subject to variability based on the test reagent and laboratory test ranges determined by each institution.
(§1) Additional pharmacodynamic metrics are also gathered for each patient, including, but not limited to: prothrombin time (using the STAR Neoplastin® method) and Factor Xa activity.
Blood samples were collected and processed according to the standard protocols.

A short description of data set [5]: Reported rivaroxaban serious bleeding adverse events. It is filed as in vivo, human. The settings on record: concomitantly administered patients, who are 22% of total population receiving rivaroxaban. The text has this: 8, 2015, American Heart Association, Scientific Sessions 2015, and published at http://www.abstractsonline.com/pp8/#!/3795/presentation/37668).

The nature of data set [6]: Plasma rivaroxaban concentration-time data and noncompartmental PK: single 20 mg rivaroxaban alone (Period I) vs with steady-state verapamil 360 mg (Period III), mild renal impairment or normal renal function. The settings on record: for CL/F / half-life / Tmax: human, in vivo; for CL/F: CL/F/kg; for half-life: t1/2. The method, then: Subjects with either mild renal impairment or with normal renal function were enrolled.
Renal function of the subjects was determined by measuring creatinine clearance (CLcr) rates. Subjects who had CLCr≥90 ml/min were categorized as having normal renal function whereas subjects who had CLcr 50-79 ml/min were categorized as mild renal impaired. Blood samples were collected and processed according to the standard protocols.

Data set [7] can be described thus: Example 1 rivaroxaban-verapamil drug-drug interaction study: rivaroxaban plasma levels. Type of data set: in vivo, human. Conditions: concomitant verapamil vs rivaroxaban alone. The method, then: Cmax and AUC values for each dose are calculated.
The conditions of data set [8]: cited from earlier work.
The target in data set [9] is T2, Factor Xa. The data set is described as follows: Factor Xa activity in subjects. It is filed as in vivo. The settings on record: concomitant verapamil vs rivaroxaban alone.
From the text: as §1

The conditions of data set [10]: cited from earlier work. The source holds these as a separate data set.
For data set [11] the following is noted: fed subjects, studies 10989 and 11938, single 20 mg; cited from earlier work.
Data set [12] is described as follows: Relationship between steady state rivaroxaban AUC and risk of major bleeding (FIG. 5). It is filed as in vivo, human. The method, then:
All show the geometric mean plus or minus one standard deviation. […] These four show the geometric mean and the full minimum and maximum subject value range.
Group “c” represents the average of the three subjects in Group “b” who had the highest AUCinf, which was about 8,143 μg·hr/L. The risk of major bleeding of the subjects in Group “c” were at least 5 times higher compared to the populations in Group “a” and not even visible on this scale.

For data set [13] the following is noted: cited from earlier work. The source holds these as a separate data set.
[14] abbreviates: Period III (rivaroxaban and verapamil), Group 2: Normal Renal Function, individual subjects.
The mark [15] stands for this setting: single 10 mg dose with a strong CYP3A4/Pgp inhibitor.

Like-named read-outs stand apart in the source and are kept apart here.

T2 sequence (P00742 235-488 limits assumed): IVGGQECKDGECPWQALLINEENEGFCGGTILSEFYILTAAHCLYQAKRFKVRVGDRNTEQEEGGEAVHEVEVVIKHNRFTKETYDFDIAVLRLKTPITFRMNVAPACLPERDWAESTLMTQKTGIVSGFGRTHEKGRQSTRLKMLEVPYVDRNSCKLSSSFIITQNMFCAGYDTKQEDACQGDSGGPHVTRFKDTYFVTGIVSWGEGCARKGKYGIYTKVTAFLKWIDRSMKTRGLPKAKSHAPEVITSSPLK
T2 sequence (P00742 41-179 partner limits assumed): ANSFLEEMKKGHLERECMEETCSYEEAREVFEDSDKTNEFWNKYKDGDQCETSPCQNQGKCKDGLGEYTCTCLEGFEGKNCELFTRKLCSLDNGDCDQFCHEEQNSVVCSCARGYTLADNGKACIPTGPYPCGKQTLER
T1 sequence (P08183 whole entry): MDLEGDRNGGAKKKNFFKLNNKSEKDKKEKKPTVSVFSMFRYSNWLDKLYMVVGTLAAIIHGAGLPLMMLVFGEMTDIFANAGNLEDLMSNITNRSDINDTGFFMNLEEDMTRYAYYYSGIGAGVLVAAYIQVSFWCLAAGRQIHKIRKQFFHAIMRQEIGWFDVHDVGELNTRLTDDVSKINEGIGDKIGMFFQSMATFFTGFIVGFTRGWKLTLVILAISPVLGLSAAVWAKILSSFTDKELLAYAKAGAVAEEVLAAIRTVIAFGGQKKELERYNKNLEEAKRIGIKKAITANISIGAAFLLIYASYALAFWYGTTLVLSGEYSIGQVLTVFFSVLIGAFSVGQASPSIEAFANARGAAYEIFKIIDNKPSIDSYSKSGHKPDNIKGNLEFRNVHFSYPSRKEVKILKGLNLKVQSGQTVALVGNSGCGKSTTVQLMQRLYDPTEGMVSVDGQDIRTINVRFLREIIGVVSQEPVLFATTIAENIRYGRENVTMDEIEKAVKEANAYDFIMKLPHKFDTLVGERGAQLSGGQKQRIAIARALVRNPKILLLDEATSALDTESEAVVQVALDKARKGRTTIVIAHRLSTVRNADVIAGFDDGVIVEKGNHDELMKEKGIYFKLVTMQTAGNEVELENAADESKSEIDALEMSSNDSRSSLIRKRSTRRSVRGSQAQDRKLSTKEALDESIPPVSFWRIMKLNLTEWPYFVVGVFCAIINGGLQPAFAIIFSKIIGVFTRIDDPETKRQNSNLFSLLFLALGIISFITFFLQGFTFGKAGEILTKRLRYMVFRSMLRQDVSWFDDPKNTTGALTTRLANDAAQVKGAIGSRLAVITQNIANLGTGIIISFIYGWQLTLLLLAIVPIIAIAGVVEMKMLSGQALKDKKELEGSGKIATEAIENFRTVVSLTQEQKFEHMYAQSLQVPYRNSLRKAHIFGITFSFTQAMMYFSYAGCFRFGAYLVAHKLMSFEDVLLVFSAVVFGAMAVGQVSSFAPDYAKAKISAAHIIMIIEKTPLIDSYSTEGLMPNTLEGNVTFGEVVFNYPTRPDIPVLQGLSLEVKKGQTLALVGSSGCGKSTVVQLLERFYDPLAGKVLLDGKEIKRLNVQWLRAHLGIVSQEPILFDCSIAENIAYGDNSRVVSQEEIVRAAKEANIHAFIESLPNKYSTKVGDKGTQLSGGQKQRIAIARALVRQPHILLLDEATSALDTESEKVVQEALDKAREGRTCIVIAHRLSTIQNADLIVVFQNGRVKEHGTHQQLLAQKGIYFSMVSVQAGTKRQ

In the case of `CC[C@H]1OC(=O)[C@H](C)[C@@H](O[C@H]2C[C@@](C)(OC)[C@@H](O)[C@H](C)O2)[C@H](C)[C@@H](O[C@@H]2O[C@H](C)C[C@H](N(C)C)[C@H]2O)[C@](C)(O)C[C@@H](C)C(=O)[C@H](C)[C@@H](O)[C@]1(C)O` [erythromycin], the “renal elimination (unchanged)” value in data set [1] was 2-15%. Besides, on P-gp [2], the “inhibition of P-gp-mediated efflux of rivaroxaban” value is on record as “did not inhibit”.
`COc1ccc(CCNCCCC(C#N)(c2ccc(OC)c(OC)c2)C(C)C)cc1OC` (centres unmarked) [norverapamil]: the “inhibitory potential toward P-gp” value on P-gp [3] was “have inhibitory potential toward P-gp”.
Broadly, the CL/F is clearance divided by bioavailability, as obtained after extravascular dosing. As a reminder, the half-life is how long it takes for the measured level to halve. A higher half-life goes with slow decline. Usually Tmax stands for the time from dosing to the highest level. In general, Cmax refers to the peak of the concentration-time curve. With `O=C(NC[C@H]1CN(c2ccc(N3CCOCC3=O)cc2)C(=O)O1)c1ccc(Cl)s1` [rivaroxaban, Rivaroxaban], the “AUEC for Factor Xa inhibition vs healthy subjects” value on Factor Xa [4] (mild renal impairment) is given as 1.5 fold. Also, the “AUEC for Factor Xa inhibition vs healthy subjects” value on Factor Xa [4] (moderate renal impairment) is 1.86 fold. For the same compound, the “AUEC for Factor Xa inhibition vs healthy subjects” value at Factor Xa [4] (severe renal impairment) was 2.0 fold. For the same compound, the “prothrombin time (PT)” value in the data set on prothrombin time (concomitant verapamil vs rivaroxaban alone) is listed as “prolonged PT”. The “relationship between pharmacokinetics (plasma concentration) and pharmacodynamics (PT)” value with prothrombin time (normal renal function and mild renal insufficiency, Day 1 and Day 15) is “clear linear relationship”. In data set [5], the “share of reported rivaroxaban serious bleeding adverse events” value came out at 30%. In data set [6] (setting [14]), this compound gave a CL/F/kg of 0.0705 L/h/kg and a CL/F of 1.11 mL/min/kg. The compound further showed a CL/F in [6] (20 mg, Period I (rivaroxaban alone), Group 2: Normal Renal Function, outlier sample excluded, arithmetic mean) of 1.8 mL/min/kg. Moreover, in data set [6] (20 mg), the half-life is 566 min and the time to peak (Tmax) stood at 30 min. In data set [6] (Period III (rivaroxaban and verapamil), Group 2: Normal Renal Function, median), this compound had a CL/F of 1.11 mL/min/kg. Besides, in data set [6], the half-life is 394 min and the Tmax is 30 min. The rivaroxaban plasma concentrations result in [7] was “higher rivaroxaban plasma concentrations”. Also, in data set [8] (20 mg rivaroxaban with food, study 11938), the “Cmax, upper boundary of 90% confidence interval” value was 317 ng/mL. Further, in data set [8] (20 mg rivaroxaban), the “steady state AUC, upper bound of 90% confidence interval (Label A)” value is reported as “about 3,792 μg·hr/L” and the “steady state Cmax, upper bound of 90% confidence interval” value was 275 ng/mL. Besides, in [8] (setting [15]), the peak concentration (Cmax) was 268 ng/mL and the “estimated steady state AUC (Label B)” value is “about 3,404 μg·hr/L”. Besides, in data set [8] (single 20 mg dose after a meal), the “steady state AUC, upper boundary of 90% confidence interval (Label C)” value is listed as “about 2,448 μg·hr/L”. The “Factor Xa inhibition” value on Factor Xa [9] was “increased Factor Xa inhibition”. In data set [10] (in vivo), the “rivaroxaban dose eliminated in urine as unprocessed active drug” value was roughly 36%, the “rivaroxaban dose eliminated through active renal secretion” value is listed as 30%, the “rivaroxaban dose eliminated through glomerular filtration” value is listed as 6% and the “share of rivaroxaban clearance by CYP3A4” value is “approximately 18%”. In addition, the “share of rivaroxaban metabolized by CYP2J2” value in data set [10] (in vivo) was 14%. Also, the “rivaroxaban dose subject to metabolic degradation” value in data set [10] (liver oxidative and hydrolytic pathways) was “Approximately two-thirds”. Moreover, in [11], the “AUC, average geometric mean (Group a)” value is recorded as “approximately 2,026 μg·hr/L”. Also, the “risk of major bleeding (Group a)” value in [12] (AUC approximately 2,026 μg·hr/L) is given as “about 3%”. In [12] (mild renal impairment, 20 mg rivaroxaban and 360 mg verapamil), the “risk of major bleeding vs Group a (Group b)” value was determined as 2.5 times. Also, the “risk of major bleeding vs Group a (Group c)” value in data set [12] (three Group b subjects with highest AUCinf) was “at least 5 times”. In addition, the rivaroxaban exposure increase in data set [13] (concomitant clarithromycin) is given as 54%. In data set [13] (concomitant erythromycin), the rivaroxaban exposure increase is recorded as 34%. For the same compound, the rivaroxaban exposure increase in [13] (concomitant fluconazole) is reported as 42%.

(Values after patent publication US20240252501A1 (MORGANDANE SCIENTIFIC, LLC, priority 2016, published 2024).)
